In patent US20120131697A1, “GENE ENCODING AUXIN RECEPTOR PROTEIN DERIVED FROM RICE AND USE THEREOF” (REPUBLIC OF KOREA (MANAGEMENT: RURAL DEVELOPMENT …, priority 2009, published 2012):
Blank lines part the entries; values can stand above or below the molecule they belong to.

Tests used:
ABP57 = ABP57 (Oryza sativa subsp. japonica, UniProt B7ELI0); assay: Scatchard analysis of binding between recombinant ABP57 and auxin hormone IAA; design: species or system rice; settings: recombinant protein
[1] = test system: proton pump in plasma membrane; assay: Activation of proton pump in rice plasma membrane by ABP57 protein (fluorescence analyzer, Hill plot); assay type: biochemical
Protocol: The purified protein and the proton pump in plasma membrane, which had been separated from rice, were admixed with each other, and then the activity of proton pump was measured by fluorescence analyzer.
The change in degree of activating proton pump according to concentration of the recombinant protein was measured and analyzed by Hill plot analysis. […] Further, this value was very close to the Hill coefficient of 0.97, which was obtained by previous studies for the interaction between the proton pump and natural ABP57 (FIG. 8).

Kd (ABP57; FIG. 9, read-out: IAA dissociation constant): 3.6 µM | number of binding site (ABP57; corresponds to low affinity binding site of natural ABP57): 1
Molecule: O=C(O)Cc1c[nH]c2ccccc12 [IAA, indole-3-acetic acid]

B1: recombinant protein: recombinant auxin receptor protein ABP57 from rice, expressed in E. coli as MBP fusion, MBP removed (SEQ ID NO: 1) (protein, listed as Oryza sativa)
chain: MAEIVSSVVVHEAVNQIIHGLVNWNERKSSAEENMERLEMAHIRLEAALETSCKWRITDSSLLCWQKKLKRAAQECDDTLRKCRQRILEQEEAEQEVRNSSIPRRIAHATKSLVSSLFYSNIDGSCRSAVRRFEWFADGANEFLRFVEFGGTPHQYLFFDPLIRQLLAGKTLEYKLVSENKYRLFVIRPFCISENRIEARLIFDSKNASALEDDFFLCMLLQVSESVDILGIVIKCLQLFNPHFMSTAESVRNELTQLPSQDFTWVPYAESCHKKHWDNIHSITTQWFRPNPLCCKQHGQNHSCESSNLGMPSVQGVSLGPVIEVSLQCHVPVPEFREQGTIVKGKPSLKKCPHMKVDLVYTPHGSSQDLLPEIKSSVIEVINGDKQHCLHTNIALELMEEIMLPRAVDCFHENAEAKLYQMLWKSKHGGAYLQVMKATMNTRSTQRTIRGSRKAKLLQQQGHKTQHRTNAISDFLNLWSAHAPVQLQGSILDWIQKEKEAQLAPPLLRLKF
Hill coefficient ([1]; degree of activating proton pump according to concentration of recombinant protein, Hill plot, FIG. 8): 0.94 | activity of proton pump ([1]; purified recombinant protein admixed with proton pump in plasma membrane separated from rice, FIG. 7): increase in the activity of proton pump
